Values belong to the compound of their own block, whether it stands above or below them.
Legend:
[1] = Antioxidant rate constant kinh in chemical tests, relative to α-TOH
From the text: Antioxidants, most commonly substituted phenols, effectively intercept peroxyls by transferring the phenolic H-atom to a propagating peroxyl radical, with a rate constant kinh that is faster than that of chain propagation. The most famous example of a phenolic antioxidant is vitamin E (α-toco-pherol, α-TOH) nature's hydrophobic defense against radical chain oxidation.
Compounds of the present invention have a higher kinh and serve as better antioxidants than α-TOH in chemical tests. The critical antioxidant step is shown in Equation 1, the larger the kinh, the better the antioxidant. The simple pyridinol 2a shown below is nearly 5 times better than α-TOH as an antioxidant and the bicyclic compounds 3a and 4a are over 20 times better than the vitamin. […]

[2] = Direct cellular toxicity (total cellular ATP levels); type: cell-based; conditions: human, HepG2 cells, read-out: Cellular Toxicity (EC50, μM ± SD)
From the text: Values represent means±S.E.M.

Microsomal stability = conditions: % of unmodified compound remaining after reaction; human liver microsomes
COX-1 = COX-1 (Homo sapiens, UniProt P23219); assay: Inhibition of COX-1-catalyzed oxidation of arachidonic acid (Example 6); type: biochemical
Procedure: (§1) The inhibition of the lipid peroxidation produced by myoglobin (Mb) and COX-1 by the different analogs was tested. Values represent the IC50 for each hemeprotein and are expressed as means±S.E.M. a: value reported from (1.). b: value reported from (3).

myoglobin (Mb) = target: T1, myoglobin (Mb) (Homo sapiens, UniProt P02144); assay: Inhibition of myoglobin-induced oxidation of arachidonic acid; type: biochemical; conditions: among ApAP and analogs 12-14
T1 sequence (P02144 1-154): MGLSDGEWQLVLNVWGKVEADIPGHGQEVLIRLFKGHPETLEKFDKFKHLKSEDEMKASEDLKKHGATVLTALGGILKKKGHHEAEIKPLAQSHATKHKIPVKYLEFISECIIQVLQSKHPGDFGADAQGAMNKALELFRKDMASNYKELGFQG
Procedure: as §1

[3] = test system: rat model of rhabdomyolysis; assay: Rat model of rhabdomyolysis (myoglobin-catalyzed lipid peroxidation, renal failure); type: in vivo; conditions: dose giving plasma levels in the human therapeutic range
ferryl myoglobin = target: T2, ferryl myoglobin (Homo sapiens, UniProt P02144); assay: Reduction of ferryl myoglobin to ferric myoglobin; type: biochemical; conditions: compared with acetaminophen
T2 sequence (P02144 1-154): T1 sequence (P02144 1-154)
Procedure: Ferryl myoglobin was generated by incubating ferric myoglobin 10 μM in PBS with 10 μM hydrogen peroxide until there was no more change in the peak at 421 nm. At this time, the analogs were added to the cuvette at the final concentrations indicated and spectra were recorded every 15 sec for 2 min. The initial rate of reduction was calculated as the variation of absorbance at 409 nm in the first two minutes after adding the analogs. In this period of time the rates of reduction were linear for each concentration of analog.

HepG2 liver cell line = test system: HepG2 liver cell line
Procedure: HepG2 were plated in multiple 96-well plates at 2×10^4 cells per well and pretreated with ethanol 100 μM for 2 hours. […] Cell viability after 24 h was determined by measuring ATP levels by luminescence assay.

PGHS-2 (COX-2) = target: T3, PGHS-2 (COX-2) (Homo sapiens, UniProt P35354); assay: Inhibition of hematin-reconstituted COX-2, [14C] arachidonic acid oxidation; type: biochemical; conditions: compared with PGHS-1
T3 sequence (P35354 18-604): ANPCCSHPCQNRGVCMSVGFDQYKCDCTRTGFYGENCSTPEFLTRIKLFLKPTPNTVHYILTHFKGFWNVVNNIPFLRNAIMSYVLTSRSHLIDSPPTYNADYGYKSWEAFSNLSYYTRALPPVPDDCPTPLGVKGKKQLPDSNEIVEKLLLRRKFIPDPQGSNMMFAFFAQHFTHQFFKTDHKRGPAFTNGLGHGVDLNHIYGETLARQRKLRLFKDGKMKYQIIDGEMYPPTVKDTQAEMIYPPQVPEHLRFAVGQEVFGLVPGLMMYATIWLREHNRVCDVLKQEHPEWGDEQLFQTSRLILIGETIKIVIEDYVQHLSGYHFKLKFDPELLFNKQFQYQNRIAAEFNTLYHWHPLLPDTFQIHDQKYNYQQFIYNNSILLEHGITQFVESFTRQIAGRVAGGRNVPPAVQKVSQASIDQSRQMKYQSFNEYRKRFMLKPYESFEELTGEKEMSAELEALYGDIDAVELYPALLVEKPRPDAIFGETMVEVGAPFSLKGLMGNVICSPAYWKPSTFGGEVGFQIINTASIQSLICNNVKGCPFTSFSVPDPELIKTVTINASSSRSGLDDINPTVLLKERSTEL
Procedure: Hematin-reconstituted COX-1 (5.4 nM) or COX-2 (10.8 nM) in Tris HCl 100 mM, pH 8.0, 500 μM phenol, was pre-incubated with N-dimethyl pyrimidinol (DM, plain line) or N-dimethyl pyridinol (DR, dashed line) at varying concentrations at 37° C. for 20 minutes. At this time the reaction was initiated by addition of 0.5 μM of [14C] arachidonic acid. After 8 seconds, the reaction was stopped by adding an ice cold mixture of diethyl ether/methanol/4.0 M citric acid. PGHS-1 activity was expressed as percent oxidation of arachidonic acid compared with control where no inhibitor was added. Each data point represents the mean±S.E.M of six values.

Chain of COX-1 (P23219 24-599, species assumed): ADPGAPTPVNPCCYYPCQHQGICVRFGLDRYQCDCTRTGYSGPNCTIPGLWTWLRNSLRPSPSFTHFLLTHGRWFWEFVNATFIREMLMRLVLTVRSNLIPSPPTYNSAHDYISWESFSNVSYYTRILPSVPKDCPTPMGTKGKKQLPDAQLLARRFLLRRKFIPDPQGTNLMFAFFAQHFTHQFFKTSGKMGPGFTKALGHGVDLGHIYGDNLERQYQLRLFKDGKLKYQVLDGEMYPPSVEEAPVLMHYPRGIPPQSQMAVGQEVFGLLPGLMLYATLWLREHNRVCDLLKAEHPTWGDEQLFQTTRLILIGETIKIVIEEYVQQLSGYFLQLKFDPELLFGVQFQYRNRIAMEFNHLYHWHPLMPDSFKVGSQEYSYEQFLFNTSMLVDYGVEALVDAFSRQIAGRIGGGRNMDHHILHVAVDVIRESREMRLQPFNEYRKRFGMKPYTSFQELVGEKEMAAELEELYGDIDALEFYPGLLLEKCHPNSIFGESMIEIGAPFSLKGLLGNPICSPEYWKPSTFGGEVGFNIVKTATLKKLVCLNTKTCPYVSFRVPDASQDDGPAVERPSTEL

inhibition of COX-1, in words (COX-1; at concentrations up to 1 mM): not able to significantly inhibit
Microsomal stability % left (Microsomal stability): 87 ± 7%
SMILES: Cc1nc2c(c(C)c1O)CNC(=O)N2 [Analog 13]
EC50 at 24 h [2]: 2960 ± 284 µM

rank in inhibiting myoglobin-induced arachidonic oxidation (myoglobin (Mb)): least potent
rank in inhibiting COX-1 activity (COX-1; among ApAP and analogs 12-14): most potent
Microsomal stability % left (Microsomal stability): 97 ± 3%
SMILES: Cc1nc2c(c(C)c1O)COC(=O)N2 [Analog 14]
EC50 at 24 h [2]: > 5000 µM

inhibition of PGHS-2 (COX-2), in words (PGHS-2 (COX-2)): only a weak inhibitor
SMILES: CN(C)c1ccc(O)cn1 [DM-Pyr, 6-(dimethylamino) pyridin-3-ol]

Second part, the compound before the results:

SMILES: Cc1cc(N(C)C)nc(C)c1O [Analog 2a]
antioxidant potency, times better than α-TOH [1]: ~5 times

SMILES: O=C1NCc2cc(O)cnc2N1 [Analog 12]
EC50 at 24 h [2]: 4760 ± 36 µM
Microsomal stability % left (Microsomal stability): 158 ± 33%

SMILES: CC(=O)Nc1ccc(O)cc1 [ApAP, acetaminophen]
lipid peroxidation in rhabdomyolysis model ([3]; listed as Acetaminophen): blocked lipid peroxidation
renal failure in rhabdomyolysis model ([3]; listed as Acetaminophen): prevented the renal failure
lipid peroxidation in rhabdomyolysis model ([3]; listed as acetaminophen): blocks
renal failure in rhabdomyolysis model ([3]; listed as acetaminophen): blocks
EC50 at 24 h [2]: 594 ± 147 µM

SMILES: CN(C)c1ncc(O)cn1 [DM-Pym, 2-(dimethylamino)pyrimidin-5-ol]
potency in reducing ferryl myoglobin (ferryl myoglobin): remarkably more potent than acetaminophen
cytotoxicity in ethanol-induced HepG2 model (HepG2 liver cell line): does not cause cytotoxicity
